Laboratory results as given in US11865129B2, “Application of anemoside B4 in preparation of a drug for treatment or prevention of psoriasis” (GUANGXI XINHAI PHARMACEUTICAL TECHNOLOGY CO., LTD., priority 2021, dated 2024).

Tests used:
[1] = tested on: IL-17; assay: IL-17 level in skin tissue, psoriasis model mice; assay type: in vivo, BALB/c male mice; details: 12 days, compared with model control group
Protocol: (§1) A shaving area on the back of the mice in each group is 2.5 cm×3 cm, and the vellus is removed with mild depilatory cream. The mice of each group except the blank control group are modeled by administrating 62.5 mg 5% imiquimod cream on the shaving area until the skin is thickened and has erythema and silver scales for modeling completely. During the model establishment, 5% imiquimod cream is administrated once a day, and continuously administrated for 14 days. On the third day, the model establishment is continued and drugs are administered at the same time, wherein the mice in the AC intragastric administration group (8 mg/kg), the anemoside B4 intragastric (i.g.) administration group (5 mg/kg), the anemoside B4 intragastric administration group (10 mg/kg), and the anemoside B4 intragastric administration group (20 mg/kg) are administrated once a day, and continuously administrated for 12 days. […] The mice in the blank control group and the model control group are applied 62.5 mg Vaseline to the skin lesions once a day, and continuously applied for 12 days. The weight of the mice is recorded for counting the weight change of the mice. 100 mg skin tissue of the mice in each group of the first animal group are precisely weighed, added 0.9 mL ice normal saline, homogenized with the tissue grinder, and centrifuged at 4° C. and 3000 rpm for 10 min. The supernatant is collected, and IL-12, IL-17, IL-6 and IL-1β level in the skin tissue are measured by kits according to the procedures of specification.

[2] = tested on: IL-17; assay: IL-17 level in serum by ELISA, psoriasis model rats; assay type: in vivo, SD male rats; details: 7 days, vs model control group
Protocol: (§2) 60 SPF-grade SD male rats in the second animal group are divided into 6 groups: a blank control group, a model control group, an anemoside B4 intragastric administration group (5 mg/kg), an anemoside B4 intragastric administration group (10 mg/kg), an anemoside B4 intragastric administration group (20 mg/kg), and an acitretin intragastric administration group (5 mg/kg), and are respectively expressed into the blank control group, the model group, anemoside B4 5 mg/kg, anemoside B4 10 mg/kg, anemoside B4 20 mg/kg, and acitretin 5 mg/kg in FIGS. 3, 4 and 5 for convenience. A shaving area on the back of the rats in each group is 2.5 cm×3 cm, and the vellus is removed with mild depilatory cream. The rats of each group except the blank control group are modeled by administrating 62.5 mg 5% imiquimod cream on the shaving area until the skin is thickened and has erythema and silver scales for modeling completely.
(§3) 5% imiquimod cream is administrated once a day, and continuously administrated for 8 days for model establishment. On the second day, the rats in each group are continuously intragastric (i.g.) administered drugs for 7 days.
(§4) After administration, blood is taken from abdominal aorta of the rats in each group of the second animal group, centrifuged to collect the serum, and measured the M-CSF, VEGF, IL-6 and IL-17 level in the serum by ELISA kits according to the procedures of specification.

[3] = tested on: white blood cell (WBC), Neutrophilicgranulocyte (Neu) and Lymphocyte (Lym); assay: Blood analysis (blood routine tester), psoriasis model mice; assay type: in vivo, BALB/c male mice; details: 12 days, compared with model control group
Protocol: as §1, with “Eyeball blood” for “100 mg skin tissue”, “is drawn on the last day, and measured the level of white blood cell (WBC), […] (Neu) and Lymphocyte (Lym) in blood” for “are precisely weighed, added 0.9 mL ice normal saline, homogenized”, “blood routine tester.” for “tissue grinder, and centrifuged at 4° C. and 3000 rpm for 10 min. The supernatant is collected, and IL-12, IL-17, IL-6 and IL-1β level in the skin tissue are measured by kits according to the procedures of specification.”

[4] = tested on: IL-6; assay: IL-6 level in serum by ELISA, psoriasis model rats; assay type: in vivo, SD male rats; details: 7 days, vs model control group
Protocol: as §2, §3, §4

[5] = tested on: 5% imiquimod-induced psoriatic lesions; assay: Psoriatic lesions and PASI, 5% imiquimod-induced psoriasis model in rats (second animal group); assay type: in vivo, SD male rats; details: 7 days; for erythema and skin lesions of the rats: compared to model control group; for PASI: compared with model control group
Protocol: as §2, §3
The psoriasis area and severity index (PASI) of the mice in the first animal group and the rats in the second animal group is performed by taking photographs of the shaving area, giving 0-4 scores for the degree of erythema, scales and infiltration thickness in the skin lesions according to a PASI standard, and obtaining the total scores by summing the scores of the three parts; wherein the PASI standard is as follows: none 0, mild 1, moderate 2, severe 3, and extremely severe 4.

[6] = tested on: T lymphocyte subsets of CD4+, CD3+, CD4+/CD8+; assay: T lymphocyte subsets by flow cytometry, psoriasis model rats; assay type: in vivo, SD male rats; details: 7 days, vs model control group
Protocol: as §2, §3
After administration, blood is taken from abdominal aorta of the rats in each group of the second animal group, added erythrocyte lysis buffer, centrifuged to collect T lymphocytes, incubated CD4, CD3 and CD8 antibodies in 4° C., washed with a buffer, centrifuged to collect cells, and is subjected to flow cytometry to measure the ratio of the T lymphocyte subsets.

[7] = tested on: M-CSF; assay: M-CSF level in serum by ELISA, psoriasis model rats; assay type: in vivo, SD male rats; details: 7 days, vs model control group
Protocol: as §2, §3, §4

[8] = tested on: VEGF; assay: VEGF level in serum by ELISA, psoriasis model rats; assay type: in vivo, SD male rats; details: 7 days, vs model control group
Protocol: as §2, §3, §4

[9] = intragastric 5 mg/kg once a day
[10] = intragastric 10 mg/kg once a day
[11] = intragastric 20 mg/kg once a day

C=C(C)[C@@H]1CC[C@]2(C(=O)O[C@@H]3O[C@H](CO[C@@H]4O[C@H](CO)[C@@H](O[C@@H]5O[C@@H](C)[C@H](O)[C@@H](O)[C@H]5O)[C@H](O)[C@H]4O)[C@@H](O)[C@H](O)[C@H]3O)CC[C@]3(C)[C@H](CC[C@@H]4[C@@]5(C)CC[C@H](O[C@@H]6OC[C@H](O)[C@H](O)[C@H]6O[C@@H]6O[C@@H](C)[C@H](O)[C@@H](O)[C@H]6O)[C@@](C)(CO)[C@@H]5CC[C@]43C)[C@H]12 [anemoside B4]
significantly decreased: IL-17 level in serum ([2]; intragastric 5 mg/kg) | IL-17 level in serum ([2]; intragastric 10 mg/kg) | IL-17 level in serum ([2]; intragastric 20 mg/kg) | Lym in blood [3, 9] | Neu in blood [3, 9] | WBC in blood [3, 9] | Lym in blood [3, 10] | Neu in blood [3, 10] | WBC in blood [3, 10] | Lym in blood [3, 11] | Neu in blood [3, 11] | WBC in blood [3, 11] | IL-6 level in serum ([4]; intragastric 5 mg/kg) | IL-6 level in serum ([4]; intragastric 10 mg/kg) | IL-6 level in serum ([4]; intragastric 20 mg/kg) | PASI ([5]; intragastric 10 mg/kg) | PASI ([5]; intragastric 20 mg/kg) | M-CSF level in serum ([7]; intragastric 5 mg/kg) | M-CSF level in serum ([7]; intragastric 10 mg/kg) | M-CSF level in serum ([7]; intragastric 20 mg/kg) | VEGF level in serum ([8]; intragastric 5 mg/kg) | VEGF level in serum ([8]; intragastric 10 mg/kg) | VEGF level in serum ([8]; intragastric 20 mg/kg)
significantly reduced: level of IL-17 in the skin tissue [1, 9] | level of IL-17 in the skin tissue [1, 10] | level of IL-17 in the skin tissue [1, 11]
lightened: erythema and skin lesions of the rats ([5]; intragastric 5 mg/kg) | erythema and skin lesions of the rats ([5]; intragastric 10 mg/kg) | erythema and skin lesions of the rats ([5]; intragastric 20 mg/kg)
significantly increased: ratio of CD3+ in serum ([6]; intragastric 5 mg/kg) | ratio of CD4+ in serum ([6]; intragastric 5 mg/kg) | ratio of CD4+/CD8+ in serum ([6]; intragastric 5 mg/kg) | ratio of CD3+ in serum ([6]; intragastric 10 mg/kg) | ratio of CD4+ in serum ([6]; intragastric 10 mg/kg) | ratio of CD4+/CD8+ in serum ([6]; intragastric 10 mg/kg) | ratio of CD3+ in serum ([6]; intragastric 20 mg/kg) | ratio of CD4+ in serum ([6]; intragastric 20 mg/kg) | ratio of CD4+/CD8+ in serum ([6]; intragastric 20 mg/kg)
